Data: paper PMC5321639, “Design and pharmacodynamics of recombinant NZ2114 histidine mutants with improved activity against methicillin-resistant Staphylococcus aureus” (AMB Express, 2017)
Where a SMILES comes first, the peptide text is derived from it. Bridges are numbered along the chain shown (N, C = ends).

Assays:
S. enteritidis CMCC50336 = experiment: MIC assay; type: cell-based, Salmonella enteritidis; conditions: MHB, 1 × 10^5 CFU/ml, 37 °C, 18–24 h, triplicate
Protocol: The peptide solutions were diluted twofold with the range of final concentrations were 0.015–32 µg/ml (0.003–7.273 µM) for purified H1, H2, H3, H6, and H8. The test strains were grown in MHB medium at 37 °C to an OD600 of 0.4 and diluted to 1 × 10^5 CFU/ml. The 10 µl peptide and 90 µl cell suspension were added into each well. All assays were performed in triplicate. The antimicrobial activity of NZ2114 and vancomycin were tested as positive controls. The plates were incubated at 37 °C for 18–24 h. MIC was defined as the lowest peptide concentration of ones at which there was no visible growth (Tian et al. [2009]).

[1] = tested on: S. aureus ATCC43300 (MRSA); experiment: Time-kill curve assay; type: cell-based, Staphylococcus aureus; conditions: for time for bacterial counts to decrease to 2 log10 CFU/ml (a 99.9% reduction): start 1 × 10^5 CFU/ml, 37 °C, triplicate
Protocol: Bacterial culture (S. aureus ATCC43300) was diluted to 1 × 10^5 CFU/ml and H1, H2, and H3 were added. […] The mixture was cultivated at 250 rpm, 37 °C. The 100-µl samples were taken from each flask at 0, 2, 4, 6, 8, 12 and 24 h of incubation, and serial dilutions of samples were plated to count visible colonies. Vancomycin was tested in the same way as a positive control and the culture without antimicrobial agent as a negative control (Xiong et al. [2011]). All experiments were performed in triplicate.

mice red blood cells = experiment: Hemolytic assay; type: cell-based; conditions: 0.23 to 7.27 μM (1–32 μg/ml), 37 °C 1 h
Protocol: The mice blood cells were washed three times in stroke-physiological saline solution (0.9% NaCl) and centrifuged at 4 °C, 2000 rpm for 5 min. A 50-μl cell was diluted to 8% (v/v), added into 96-well plates, and mixed with 50-μl peptide to the final concentrations ranging from […]. The plates were incubated at 37 °C for 1 h, and centrifuged at 4 °C, 5000 rpm for 5 min. The absorbance of supernatants was measured at 540 nm, and 0 and 100% hemolysis was measured by 0.9% NaCl and 0.1% Triton X-100, respectively. The hemolysis percentages were calculated by the following equation: [(Abs540 nm in H1, H2, H3 solution − Abs540 nm in 0.9% NaCl)/(Abs540 nm in 0.1% Triton X-100 − Abs540 nm in 0.9% NaCl)] ×100% (Jiao et al. [2015]).

## CC[C@H](C)[C@@H]1NC(=O)[C@H](CO)NC(=O)[C@H](CCCCN)NC(=O)[C@@H]2CSSC[C@@H](C(=O)N[C@@H](Cc3ccc(O)cc3)C(=O)O)NC(=O)[C@H](CCCCN)NC(=O)[C@@H]3CSSC[C@H](NC(=O)[C@H](CCCNC(=N)N)NC(=O)[C@H](CC(C)C)NC(=O)[C@H](CC(=O)O)NC(=O)[C@H](CC(=O)O)NC(=O)[C@H](CCC(=O)O)NC(=O)[C@H](CC(N)=O)NC(=O)[C@H](Cc4c[nH]c5ccccc45)NC(=O)[C@@H]4CCCN4C(=O)CNC(=O)[C@H](CC(N)=O)NC(=O)[C@@H](NC(=O)CNC(=O)[C@H](Cc4ccccc4)NC(=O)CN)CSSC[C@H](NC(=O)[C@H](Cc4ccc(O)cc4)NC(=O)CNC(=O)CNC(=O)[C@H](CCCCN)NC(=O)[C@H](Cc4ccc(O)cc4)NC(=O)CNC(=O)[C@H](CCCCN)NC1=O)C(=O)N[C@@H](C)C(=O)N[C@@H](CCCCN)C(=O)NCC(=O)NCC(=O)N[C@@H](Cc1ccccc1)C(=O)N[C@@H](C(C)C)C(=O)N3)C(=O)N[C@@H](CCCNC(=N)N)C(=O)N[C@@H](CC(N)=O)C(=O)N[C@@H](Cc1c[nH]cn1)C(=O)N2 [H2] (H-GFGCNGPWNEDDLRCRNHCKSIKGYKGGYCAKGGFVCKCY-OH; disulfide 4-30, 15-37, 19-39 (inferred); N-terminus and C-terminus assumed)
S. enteritidis CMCC50336
  MIC: >7.273 µM
[1]; 1× MIC
  time for bacterial counts to decrease to 2 log10 CFU/ml (a 99.9% reduction): 1.5 h
[1]; 1×, 2× and 4× MIC, maintained to 24 h
  regrowth of pathogens up to 24 h: without regrowth
[1]; 2× MIC
  time for bacterial counts to decrease to 2 log10 CFU/ml (a 99.9% reduction): 1 h
[1]; 4× MIC
  time for bacterial counts to decrease to 2 log10 CFU/ml (a 99.9% reduction): 0.5 h
Mice red blood cells
  hemolytic activity: little or no hemolytic activity
